Laboratory results as given in ChEMBL document CHEMBL3774317, “Design and synthesis of novel tamoxifen analogues that avoid CYP2D6 metabolism” (Eur J Med Chem, 2016).

Experiments:
Assay type in all cases: functional
[1] = Cytotoxicity against human SW620 cells assessed as cell growth at 10^-7 M after 48 hrs by SRB assay; conditions: SW-620, 48 h, read-out: Activity
[2] = Cytotoxicity against human UACC62 cells assessed as cell growth at 10^-7 M after 48 hrs by SRB assay; conditions: UACC-62, 48 h, read-out: Activity
NCI-H322M = experiment: Cytotoxicity against human NCI-H322M cells assessed as cell growth at 10^-6 M after 48 hrs by SRB assay; conditions: read-out: Activity
NCI-H460 = experiment: Cytotoxicity against human NCI-H460 cells assessed as cell growth at 10^-6 M after 48 hrs by SRB assay; conditions: NCI-H460, 48 h, read-out: Activity
[3] = Cytotoxicity against human SF268 cells assessed as cell growth at 10^-6 M after 48 hrs by SRB assay; conditions: SF-268, 48 h, read-out: Activity
SR [4] = experiment: Cytotoxicity against human SR cells assessed as cell growth at 10^-5 M after 48 hrs by SRB assay; conditions: read-out: Activity
[5] = Cytotoxicity against human HCT116 cells assessed as cell growth at 10^-5 M after 48 hrs by SRB assay; conditions: HCT-116, 48 h, read-out: Activity
[6] = Cytotoxicity against human IGROV1 cells assessed as cell growth at 10^-8 M after 48 hrs by SRB assay; conditions: IGROV-1, 48 h, read-out: Activity
[7] = Cytotoxicity against human SKOV3 cells assessed as cell growth at 10^-8 M after 48 hrs by SRB assay; conditions: SK-OV-3, 48 h, read-out: Activity
[8] = Cytotoxicity against human DU145 cells assessed as cell growth at 10^-8 M after 48 hrs by SRB assay; conditions: DU-145, 48 h, read-out: Activity
EKVX = experiment: Cytotoxicity against human EKVX cells assessed as cell growth at 10^-7 M after 48 hrs by SRB assay; conditions: read-out: Activity
NCI-H226 [9] = experiment: Cytotoxicity against human NCI-H226 cells assessed as cell growth at 10^-7 M after 48 hrs by SRB assay; conditions: NCI-H226, 48 h, read-out: Activity
[10] = Cytotoxicity against human MOLT4 cells assessed as cell growth at 10^-4 M after 48 hrs by SRB assay; conditions: MOLT-4, 48 h, read-out: Activity
[11] = Cytotoxicity against human HOP92 cells assessed as cell growth at 10^-4 M after 48 hrs by SRB assay; conditions: HOP-92, 48 h, read-out: Activity
[12] = Cytotoxicity against human SW620 cells assessed as cell growth at 10^-4 M after 48 hrs by SRB assay; conditions: SW-620, 48 h, read-out: Activity
SK-MEL-2 = experiment: Cytotoxicity against human SK-MEL-2 cells assessed as cell growth at 10^-4 M after 48 hrs by SRB assay; conditions: SK-MEL-2, 48 h, read-out: Activity
SR [13] = experiment: Cytotoxicity against human SR cells assessed as cell growth at 50 nM after 48 hrs by SRB assay; conditions: read-out: Activity
A549 = experiment: Cytotoxicity against human A549 cells assessed as cell growth at 50 nM after 48 hrs by SRB assay; conditions: A549, 48 h, read-out: Activity
[14] = Cytotoxicity against human HCT116 cells assessed as cell growth at 50 nM after 48 hrs by SRB assay; conditions: HCT-116, 48 h, read-out: Activity
SK-MEL-5 [15] = experiment: Cytotoxicity against human SK-MEL-5 cells assessed as cell growth at 50 nM after 48 hrs by SRB assay; conditions: SK-MEL-5, 48 h, read-out: Activity
[16] = Cytotoxicity against human OVCAR5 cells assessed as cell growth at 50 nM after 48 hrs by SRB assay; conditions: OVCAR-5, 48 h, read-out: Activity
[17] = Cytotoxicity against human NCI-ADR-RES cells assessed as cell growth at 50 nM after 48 hrs by SRB assay; conditions: read-out: Activity
[18] = Cytotoxicity against human Caki1 cells assessed as cell growth at 50 nM after 48 hrs by SRB assay; conditions: CAKI-1, 48 h, read-out: Activity
[19] = Cytotoxicity against human MOLT4 cells assessed as cell growth at 0.5 uM after 48 hrs by SRB assay; conditions: MOLT-4, 48 h, read-out: Activity
[20] = Cytotoxicity against human OVCAR8 cells assessed as cell growth at 50 uM after 48 hrs by SRB assay; conditions: OVCAR-8, 48 h, read-out: Activity
[21] = Cytotoxicity against human Hs 578T cells assessed as cell growth at 50 uM after 48 hrs by SRB assay; conditions: read-out: Activity
[22] = Cytotoxicity against human LOXIMVI cells assessed as cell growth at 0.5 uM after 48 hrs by SRB assay; conditions: LOX IMVI, read-out: Activity
K562 = experiment: Cytotoxicity against human K562 cells assessed as cell growth at 5 uM after 48 hrs by SRB assay; conditions: K562, 48 h, read-out: Activity
[23] = Cytotoxicity against human RPMI8226 cells assessed as cell growth at 5 nM after 48 hrs by SRB assay; conditions: RPMI-8226, 48 h, read-out: Activity
NCI-H226 [24] = experiment: Cytotoxicity against human NCI-H226 cells assessed as cell growth at 5 nM after 48 hrs by SRB assay; conditions: NCI-H226, 48 h, read-out: Activity
[25] = Cytotoxicity against human COLO205 cells assessed as cell growth at 5 nM after 48 hrs by SRB assay; conditions: COLO 205, 48 h, read-out: Activity
[26] = Cytotoxicity against human HCT116 cells assessed as cell growth at 5 nM after 48 hrs by SRB assay; conditions: HCT-116, 48 h, read-out: Activity
Malme-3M = experiment: Cytotoxicity against human MALME-3M cells assessed as cell growth at 5 nM after 48 hrs by SRB assay; conditions: read-out: Activity
SK-MEL-5 [27] = experiment: Cytotoxicity against human SK-MEL-5 cells assessed as cell growth at 5 nM after 48 hrs by SRB assay; conditions: SK-MEL-5, 48 h, read-out: Activity
[28] = Cytotoxicity against human SW620 cells assessed as cell growth at 5 uM after 48 hrs by SRB assay; conditions: SW-620, 48 h, read-out: Activity
M14 = experiment: Cytotoxicity against human M14 cells assessed as cell growth at 5 uM after 48 hrs by SRB assay; conditions: M14, 48 h, read-out: Activity
[29] = Cytotoxicity against human UACC257 cells assessed as cell growth at 5 uM after 48 hrs by SRB assay; conditions: UACC-257, 48 h, read-out: Activity
[30] = Cytotoxicity against human IGROV1 cells assessed as cell growth at 5 uM after 48 hrs by SRB assay; conditions: IGROV-1, 48 h, read-out: Activity
[31] = Cytotoxicity against human Caki1 cells assessed as cell growth at 5 uM after 48 hrs by SRB assay; conditions: CAKI-1, 48 h, read-out: Activity
MDA-MB-231 = experiment: Cytotoxicity against human MDA-MB-231 cells assessed as cell growth at 5 uM after 48 hrs by SRB assay; conditions: MDA-MB-231, 48 h, read-out: Activity
[32] = Cytotoxicity against human HOP62 cells assessed as cell growth at 50 uM after 48 hrs by SRB assay; conditions: HOP-62, 48 h, read-out: Activity
[33] = Cytotoxicity against human HCT15 cells assessed as cell growth at 50 uM after 48 hrs by SRB assay; conditions: HCT-15, 48 h, read-out: Activity

C/C(=C(/c1ccc(O)cc1)c1ccc(OCCN2CCCC2)cc1)c1ccccc1
growth at 0.1 µM [1]: 103% | growth at 0.1 µM [2]: 101% | growth at 1 µM (NCI-H322M): 90% | growth at 1 µM (NCI-H460): 102% | growth at 1 µM [3]: 88% | growth at 10 µM (SR [4]): -25% | growth at 10 µM [5]: 1% | growth at 0.01 µM [6]: 106% | growth at 0.01 µM [7]: 88% | growth at 0.01 µM [8]: 98% | growth at 0.1 µM (EKVX): 93% | growth at 0.1 µM (NCI-H226 [9]): 95% | growth at 100 µM [10]: -61% | growth at 100 µM [11]: -88% | growth at 100 µM [12]: -92% | growth at 100 µM (SK-MEL-2): -89%

CCCCCCCCCC(=O)Oc1ccc(/C(=C(/C)c2ccccc2)c2ccc(OCCN3CCCC3)cc2)cc1
growth at 0.05 µM (SR [13]): 87% | growth at 0.05 µM (A549): 102% | growth at 0.05 µM [14]: 95% | growth at 0.05 µM (SK-MEL-5 [15]): 102% | growth at 0.05 µM [16]: 94% | growth at 0.05 µM [17]: 96% | growth at 0.05 µM [18]: 82% | growth at 0.5 µM [19]: 63% | growth at 50 µM [20]: -58% | growth at 50 µM [21]: -18% | growth at 0.5 µM [22]: 62% | growth at 5 µM (K562): 74% | growth at 0.005 µM [23]: 99% | growth at 0.005 µM (NCI-H226 [24]): 93% | growth at 0.005 µM [25]: 104% | growth at 0.005 µM [26]: 98% | growth at 0.005 µM (Malme-3M): 108% | growth at 0.005 µM (SK-MEL-5 [27]): 100% | growth at 5 µM [28]: 95% | growth at 5 µM (M14): 87% | growth at 5 µM [29]: 101% | growth at 5 µM [30]: 84% | growth at 5 µM [31]: 71% | growth at 5 µM (MDA-MB-231): 102% | growth at 50 µM [32]: -78% | growth at 50 µM [33]: -100%
